Measured values reported in US7238864B2, “Acetolactate synthase gene promoter” (priority 2004, dated 2007).

Columns and labels:
ALS [1] = molecular target: T1, ALS (Oryza sativa subsp. japonica, UniProt Q6K2E8); test: in vivo ALS assay on cut rice leaves (red colour development); assay type: cell-based; settings: wild-type rice leaves, 0.15 μM (final concentration) BS, 30 °C under light for 1 day
T1 construct: 150 mg of leaves were sampled, finely cut, and then put into a petri dish; from tissue; host or cells: rice leaves (wild-type plants)
T1 sequence (Q6K2E8 44-644): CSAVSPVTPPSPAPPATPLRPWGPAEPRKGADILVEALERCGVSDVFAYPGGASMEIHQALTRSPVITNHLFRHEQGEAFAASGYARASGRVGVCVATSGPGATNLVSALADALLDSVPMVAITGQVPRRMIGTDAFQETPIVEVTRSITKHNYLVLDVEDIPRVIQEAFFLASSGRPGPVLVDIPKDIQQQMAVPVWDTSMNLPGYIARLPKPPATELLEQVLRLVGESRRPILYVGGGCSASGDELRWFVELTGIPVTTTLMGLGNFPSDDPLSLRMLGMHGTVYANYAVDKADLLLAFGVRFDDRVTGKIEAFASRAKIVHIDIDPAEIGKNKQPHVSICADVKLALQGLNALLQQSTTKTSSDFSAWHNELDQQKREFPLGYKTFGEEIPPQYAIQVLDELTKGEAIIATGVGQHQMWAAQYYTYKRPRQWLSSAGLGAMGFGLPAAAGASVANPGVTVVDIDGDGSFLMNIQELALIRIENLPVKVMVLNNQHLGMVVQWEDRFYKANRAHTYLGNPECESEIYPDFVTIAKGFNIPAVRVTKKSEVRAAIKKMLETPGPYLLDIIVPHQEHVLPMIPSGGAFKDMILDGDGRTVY
Experimental: (§1) A treatment solution (mixed salts for 25% MS media; 500 μM (final concentration) 1,1-cyclopropanedicarboxilic acid (CPCA); 5 μg Triton X-100; and 0.15 μM (final concentration) BS) was added to the dish, and the resultant was allowed to stand at 30 ° C. under light conditions (140001×) for 1 day. After reaction, the treated leaves were put into a 1.5 ml micro tube and then 200 μl of distilled water containing 0.025% Triton X-100 was added thereto. After the solution had been allowed to stand at 60° C. for 5 minutes, extraction was carried out with sonication (frequency of 40 kHz) for 15 minutes. 200 μl of the supernatant was transferred into another tube, 20 μl of 5% (v/v) sulfuric acid was added thereto, and then the resultant was allowed to stand at 60° C. for 30 minutes. Subsequently, 100 μl of a 0.5% (w/v) creatine and 100 μl of a 5% (w/v) 1-naphthol (prepared at the time of use) dissolved in a 2.5 N NaOH solution were added to the solution. The solution was allowed to stand at 37° C. for 30 minutes. […] It is understood that in the case of wild-type rice, the ALS gene was inhibited by addition of BS so that a red color was not developed.

ALS [2] = molecular target: T2, ALS (Oryza sativa subsp. japonica, UniProt Q6K2E8, S627I/W548L); test: as above; assay type: cell-based; settings: leaves of rice with the ALS-promoter-driven BS-resistance (two-point mutated) ALS gene, 0.15 μM BS, 30 °C under light for 1 day
T2 construct: 150 mg of leaves were sampled, finely cut, and then put into a petri dish; from tissue; host or cells: rice leaves (wild-type plants)
T2 sequence (Q6K2E8 44-644 W548L/S627I): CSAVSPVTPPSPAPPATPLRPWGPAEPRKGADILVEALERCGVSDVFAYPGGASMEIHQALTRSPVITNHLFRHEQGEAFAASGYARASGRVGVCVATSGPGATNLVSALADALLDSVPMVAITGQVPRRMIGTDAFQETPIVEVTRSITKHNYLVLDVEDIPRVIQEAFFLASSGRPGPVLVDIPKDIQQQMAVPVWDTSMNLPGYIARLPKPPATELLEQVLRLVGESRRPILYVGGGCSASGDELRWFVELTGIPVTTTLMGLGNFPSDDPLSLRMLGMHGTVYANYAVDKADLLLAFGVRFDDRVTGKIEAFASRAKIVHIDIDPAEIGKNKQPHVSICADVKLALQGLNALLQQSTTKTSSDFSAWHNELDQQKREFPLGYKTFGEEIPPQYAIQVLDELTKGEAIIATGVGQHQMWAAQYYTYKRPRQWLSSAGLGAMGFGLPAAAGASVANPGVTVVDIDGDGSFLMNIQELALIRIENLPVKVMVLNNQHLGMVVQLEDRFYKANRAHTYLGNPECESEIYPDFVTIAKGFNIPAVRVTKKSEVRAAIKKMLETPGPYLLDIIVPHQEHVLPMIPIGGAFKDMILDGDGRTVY
Experimental: as §1

## COc1cc(OC)nc(Oc2cccc(Oc3nc(OC)cc(OC)n3)c2C(=O)[O-])n1.[Na+] [BS, Bispyribac sodium salt]
ALS [1]
  ALS inhibition by addition of BS (red color development): inhibited
ALS [2]
  ALS activity with BS added (red color development): development of a red color similar to that developed by a group of rice plants to which no BS had been added
